Where two headings read alike, the source gives them in different places.
Assays:
[1] = tested on: HepG2 cells; experiment: Cytotoxicity in HepG2 cells using CellTiter-Blue, same incubation period as HepG2.2.15 assay; type: cell-based; conditions: 6 days
Procedure: (§1) Cytotoxicity of the compounds was tested in HepG2 cells using CellTiter-Blue, with the same incubation period and dose range as in the HepG2.2.15 assay.

[2] = tested on: HBV; experiment: anti HBV activity in HepG2.117 cell line (Tet-off, inducibly HBV producing), intracellular HBV DNA by realtime PCR; type: cell-based, Hepatitis B virus; conditions: HepG2.117 cells, 3 days of treatment, intracellular HBV DNA, read-out: HepG2 117 EC50
[3] = tested on: HBV; experiment: anti-HBV activity in stable transfected HepG2.2.15 cell line, HBV DNA from secreted virions by realtime PCR; type: cell-based, Hepatitis B virus; conditions: HepG2.2.15 cells, 6 days of treatment, secreted virion HBV DNA, read-out: HBV-HepG2 2.15 EC50
[4] = tested on: HepG2 cells; conditions: human, 4 days
[5] = tested on: HepG2 cells; experiment: Cytotoxicity in HepG2 cells incubated 4 days, Resazurin assay; conditions: read-out: HepG2 4 days CC50
[6] = in vitro; conditions: human, HepG2 4 days CC50
[7] = Cytotoxicity in HepG2 cells using CellTiter-Blue, same incubation period as HepG2.2.15 assay; type: cell-based; conditions: human, HepG2 6 days CC50
Procedure: as §1

[8] = HepG2 cells, CellTiter-Blue, read-out: HepG2 6 days CC50
[9] = Hepatitis B virus, HepG2.2.15, 144 h
[10] = Hepatitis B virus, HepG2.117, 72 h

SMILES	EC50 [2]	EC50 [3]	CC50 [5]	also measured
COC(=O)C1=C(CN2CCOCC2)NC(c2ccccn2)=NC12CCc1ccc(F)cc12 (single isomer, unassigned) [Compound 96b]	18.7 µM	30.3 µM	–	CC50 ([1]; human): > 100 µM; CC50 [4]: > 100 µM
COC(=O)C1=C(C)NC(c2ncccn2)=NC1(C)c1ccc(F)c(F)c1 (single isomer, unassigned) [Compound 159b]	> 25 µM	> 100 µM	> 25 µM	–
COC(=O)C1=C(C)NC(c2nccs2)=NC12C(F)=C(F)c1cc(F)ccc12 (single isomer, unassigned) [Compound 166b]	15.5 µM	0.197 µM	–	CC50 [4]: > 25 µM
COC(=O)C1=C(C)NC(c2ncc(F)cc2F)=NC12CC(C)(C)c1ccccc12 (single isomer, unassigned) [Compound 134b]	> 50 µM	41.9 µM	–	CC50 ([1]; human): 35.8 µM; CC50 [4]: > 50 µM
CCOC(=O)C1=C(CN2CCOCC2)NC(c2ccccn2)=NC1(C)c1ccc(F)cc1 (racemic) [Compound 4a]	–	> 100 µM	–	CC50 [1, 8]: 92 µM
COC(=O)C1=C(C)NC(c2ncccc2F)=NC1(C)c1ccc(F)c(F)c1 (single isomer, unassigned) [Compound 158b]	> 25 µM	–	> 25 µM	EC50 [3, 9]: > 100 µM
COC(=O)C1=C(C)NC(c2ncc(F)cc2F)=NC1(c1ccc(F)c(F)c1)C(F)F (single isomer, unassigned) [Compound 151b]	3.68 µM	4.25 µM	> 25 µM	–
COC(=O)C1=C(C)NC(SC)=NC1(C)c1ccc(F)c(F)c1 (single isomer, unassigned) [Compound 160b]	10.5 µM	0.451 µM	> 25 µM	–
CCOC(=O)C1=C(CN2CCOCC2)NC(c2ccccn2)=NC1(c1ccc(F)cc1)C(F)(F)F (racemic) [Compound 34a]	–	> 100 µM	–	CC50 [1, 8]: 30.9 µM
COC(=O)C1=C(CN2CCOCC2)NC(c2ccccn2)=NC12CCc1c(F)cccc12 (single isomer, unassigned) [Compound 66b]	48.9 µM	35.1 µM	–	CC50 ([1]; human): > 100 µM; CC50 [4]: > 100 µM
COC(=O)C1=C(C)NC(c2ncc(F)cc2F)=NC12c1ccccc1OC2(F)F (single isomer, unassigned) [Compound 106b]	> 25 µM	29.4 µM	–	CC50 ([1]; human): > 100 µM; CC50 [4]: > 25 µM
CCOC(=O)C1=C(CN2CCOCC2)NC(c2ccccn2)=NC1(c1ccc(F)cc1)C(F)(F)F (racemic) [Compound 34]	–	16.2 µM	–	CC50 [1, 8]: 20 µM
CCOC(=O)C1=C(CN2CCOCC2)NC(c2ccccn2)=NC1(C)c1ccc(F)cc1 (racemic) [Compound 4b]	0.76 µM	0.643 µM	> 50 µM	CC50 [1, 8]: 92.4 µM
CCOC(=O)C1=C(CN2CCOCC2)NC(c2ccccn2)=NC1(c1ccc(F)cc1)C(F)(F)F (racemic) [Compound 34b]	–	8.23 µM	–	CC50 [1, 8]: 41.6 µM
COC(=O)C1=C(C)NC(c2ncc(F)cc2F)=NC1(C)c1ccc(Cl)c(F)c1 (stereo not drawn) [156 •MsOH]	1.09 µM	1.93 µM	> 25 µM	–
COC(=O)C1=C(C#N)NC(c2ncc(F)cc2F)=NC1(C)c1ccc(F)c(F)c1 (single isomer, unassigned) [Compound 163b]	> 25 µM	> 100 µM	> 25 µM	–
COC(=O)C1=C(CN2CCOCC2)NC(c2ccccn2)=NC12c1ccc(F)cc1C(F)C2(F)F (single isomer, unassigned) [Compound 168B]	1.49 µM	5.73 µM	–	CC50 [4]: > 25 µM
COC(=O)C1=C(CN2CCOCC2)NC(c2ccccn2)=NC12CCc1ccc(F)cc12 (stereo not drawn) [Compound 96]	–	–	–	CC50 at 4 days [6]: 97 µM; CC50 at 6 days [7]: > 100 µM; EC50 [2, 10]: 0.94 µM; EC50 [3, 9]: 0.954 µM
CCOC(=O)C1=C(CN2CCOCC2)NC(c2ccccn2)=NC12CCCc1ccc(F)cc12 (stereo not drawn) [Compound 59]	–	–	–	CC50 at 4 days [6]: > 100 µM; CC50 at 6 days [7]: 68.9 µM; EC50 [2, 10]: 46.7 µM; EC50 [3, 9]: 59.5 µM
COC(=O)C1=C(C)NC(c2nccs2)=NC12C(F)=Cc1c2ccc(F)c1F (single isomer, unassigned) [Compound 174b]	> 25 µM	–	–	CC50 [4]: > 25 µM
COC(=O)C1=C(C)NC(c2ncc(F)cc2F)=NC12CC(C)(C)c1ccccc12 (single isomer, unassigned) [Compound 134a]	–	91.2 µM	–	CC50 at 4 days [6]: > 50 µM; CC50 at 6 days [7]: 53 µM; EC50 [2, 10]: > 50 µM
N#CC1=C(CN2CCOCC2)NC(c2ccccn2)=NC12CCCc1cc(F)ccc12 (single isomer, unassigned) [Compound 60b]	1.28 µM	2.26 µM	> 100 µM	CC50 [1, 8]: > 100 µM
COC(=O)C1=C(CN2CCOCC2)NC(c2ccccn2)=NC12CCc1ccc(F)cc12 (single isomer, unassigned) [Compound 96a]	0.3 µM	0.65 µM	–	CC50 at 4 days [6]: > 100 µM; CC50 at 6 days [7]: > 100 µM
COC(=O)C1=C(C)NC(c2ccccn2)=NC12CCc1ccccc12 (stereo not drawn) [Compound 90]	–	–	–	CC50 at 4 days [6]: > 50 µM; CC50 at 6 days [7]: > 50 µM; EC50 [2, 10]: 22.7 µM; EC50 [3, 9]: 5.82 µM
COC(=O)C1=C(C)NC(c2ncc(F)cc2F)=NC1(C)c1ccc(F)c(F)c1 (stereo not drawn) [132b •MsOH]	–	–	> 25 µM	EC50 [2, 10]: 0.803 µM; EC50 [3, 9]: 0.694 µM

Reference: patent US9233933B2, “4,4-disubstituted-1,4-dihydropyrimidines and the use thereof as medicaments for the treatment of hepatitis B” (priority 2012, dated 2016)
